Experimental data from PMC8300687, “A Fine-Tuned Lipophilicity/Hydrophilicity Ratio Governs Antibacterial Potency and Selectivity of Bifurcated Halogen Bond-Forming NBTIs” (Antibiotics, 2021).
Values after ≈ are worked out from the molar mass of the structure shown. Read-outs that look alike come from different tables or passages of the source.

Legend:
[1] = test system: A. baumannii 8C6 (GES-14); assay: MIC broth microdilution, A. baumannii; assay type: cell-based
Method: (§1) Antimicrobial testing was carried out by the broth microdilution method in 96-well plate format following the Clinical and Laboratory Standards Institute (CLSI) guidelines and European Committee on Antimicrobial Susceptibility Testing (EUCAST) recommendations. Bacterial suspension of specific bacterial strain equivalent to 0.5 McFarland turbidity standard was diluted with cation-adjusted Mueller Hinton broth with TES (Thermo Fisher Diagnostic, Landsmeer, The Netherlands), to obtain a final inoculum of 10^5 CFU/mL. Compounds dissolved in DMSO and inoculum were mixed together and incubated for 18–20 h at 35 °C. Suspensions of Mycobacterium sp. were prepared into a tube of Middelbrook 7H9 broth supplemented with 5% OADC (Thermo Scientific, Trek Diagnostic Systems, West Sussex, UK) and incubated for at least 10 days. After incubation the minimal inhibitory concentration (MIC) values were determined by visual inspection as the lowest dilution of compounds showing no turbidity. Tetracycline was used as a positive control on every assay plate.

[2] = Equilibrium solubility at pH 6.8; conditions: for solubility thermodynamic at 24 h: phosphate buffered saline, 37 °C, pH 6.8, aqueous buffer, thermodynamic from solid; for solubility at pH 6.8 in words: pH 6.8, single-dose in 500 mL
Method: Prior to the measurements of solubility and permeability isocratic HPLC methods were developed. […] The individual method parameters for each compound are given in the Supplementary Materials Table S1.
The vials were then placed in a homogenizer (Next Advance Bullet Blender, Troy, NY, USA) for 5 min ad speed setting “2” after which they were kept in a thermostated shaker (Tehtnica HeatMix, Domel, Slovenia) at 37 °C and 1200 RPM for 24 h. […] Twenty µL of these solutions were injected for the HPLC analysis by the described methods (Supplementary Materials Table S1). External standards for calibration were made in a mobile phase with 5% acetonitrile in a range of 30–90 mg/L and injected at 20 µL injection volumes.

[3] = molecular target: T1, hERG potassium ion channel (Homo sapiens, UniProt Q12809); assay: FP-based hERG binding assay (Invitrogen kit)
T1 construct: purchased Invitrogen (assay run at TCG Lifesciences Pvt. Ltd.)
Method: Cardiovascular safety profile was entirely outsourced. hERG screening was performed at TCG Lifesciences Pvt. Ltd., Kolkata, West Bengal, India with FP-based hERG binding assay (Invitrogen kit).

[4] = test system: M. avium; assay: MIC, M. avium; assay type: cell-based
Method: as §1

[5] = molecular target: T2, S. aureus Topo IV (Staphylococcus aureus, UniProt Q2FYS4); assay: biochemical; conditions: for IC50: mean of two to four measurements, read-out: Topoisomerase IV IC50 S. aureus; for LE Topo IV S. aureus: LE = (1.37/HA) × pIC50
T2 construct: purchased Inspiralis (Norwich, UK)
Method: A Topo IV Relaxation High Throughput Plate assay kit, purchased from Inspiralis (Norwich. UK) was used to determine IC50 values of compounds on S. aureus and E. coli. […] Biotinylated oligonucleotide in wash buffer was immobilized onto the wells, and the excess oligonucleotide was washed off with wash buffer and ultrapure water. 1.5 U of S. aureus or E. coli […] enzyme was incubated together with 0.75 μg of supercoiled pNO1 plasmid as a substrate in the presence of 3 μL inhibitor solution in 10% DMSO and 0.008% Tween 20 at 37 °C for 30 min in a final reaction volume of 30 μL in dilution buffer (50 mM Tris-HCl (pH 7.5), 1 mM DTT, 1 mM EDTA, 40% (w/v) glycerol for S. aureus and 40 mM HEPES, KOH (pH 7.6), 100 mM potassium glutamate, 1 mM DTT, 1 mM EDTA, and 40% (v/v) glycerol for E. coli). The reactions were stopped by adding the TF buffer (50 mM NaOAc (pH 4.7), 50 mM NaCl, and 50 mM MgCl2) to allow the triplex formation (biotin-oligonucleotide-plasmid) for additional 30 min. Afterward, the unbound plasmid was washed off using TF buffer, and the solution of Promega Diamond dye in T10 buffer (10 mM Tris-HCl (pH 8.0), 1 mM EDTA) was added. […] IC50 value represents the mean of two to four independent measurements.

[6] = test system: HepG2; assay: Metabolic activity assessment (cytotoxicity), HepG2; assay type: cell-based; conditions: Homo sapiens, HepG2, metabolic activity after 72 h treatment
Method: Cells of the HepG2 line (ATCC® HB-8065™) and HUVEC (ATCC® CRL-1730™) were cultured in Dulbecco’s Modified Eagle Medium (DMEM; Sigma-Aldrich, St. Louis, MO, USA) supplemented with 10% heat-deactivated FBS (Gibco, Grand Island, NE, USA), 2 mM L-glutamine, 100 U/mL penicillin, 100 μg/mL streptomycin (all from Sigma-Aldrich, St. Louis, MO, USA) in a humidified chamber at 37 °C and 5% CO2. The experiments were carried out on passages 7–9 for both cell lines. The tested compounds were dissolved in DMSO and further diluted in culture medium to a desired final concentration. Cells were seeded into 96-well plates at 8 × 10^4 cells/mL (100 μL/well) and incubated for 24 h to attach onto the wells. Cells were treated with 1 μM and 50 μM of each compound of interest or corresponding vehicle as control. […] The metabolic activity was assessed after 72 h treatment using the CellTiter 96 Aqueous One Solution Cell Proliferation Assay (Promega, Madison, WI, USA), in accordance with the manufacturer’s instructions. The absorbance was measured at 492 nm on an automated microplate reader BioTek Synergy HT (BioTek Instruments, Inc., Winooski, VT, USA). Data are presented as the percentage of metabolic activity of control cells stimulated with vehicle or as IC50 value (mean ± SD) from two independent experiments, each conducted in duplicate or triplicate. IC50 values were calculated by a non-linear regression model using Graph Pad Prism 7 software.

[7] = Acinetobacter baumannii; read-out: MIC A. baumannii 8C6 (GES-14)
[8] = Mycobacterium avium; read-out: MIC M. avium
[9] = Acinetobacter baumannii, read-out: MIC A. baumannii 8C6 (GES-14)
[10] = Mycobacterium avium, read-out: MIC M. avium

T2 sequence (Q2FYS5 whole entry): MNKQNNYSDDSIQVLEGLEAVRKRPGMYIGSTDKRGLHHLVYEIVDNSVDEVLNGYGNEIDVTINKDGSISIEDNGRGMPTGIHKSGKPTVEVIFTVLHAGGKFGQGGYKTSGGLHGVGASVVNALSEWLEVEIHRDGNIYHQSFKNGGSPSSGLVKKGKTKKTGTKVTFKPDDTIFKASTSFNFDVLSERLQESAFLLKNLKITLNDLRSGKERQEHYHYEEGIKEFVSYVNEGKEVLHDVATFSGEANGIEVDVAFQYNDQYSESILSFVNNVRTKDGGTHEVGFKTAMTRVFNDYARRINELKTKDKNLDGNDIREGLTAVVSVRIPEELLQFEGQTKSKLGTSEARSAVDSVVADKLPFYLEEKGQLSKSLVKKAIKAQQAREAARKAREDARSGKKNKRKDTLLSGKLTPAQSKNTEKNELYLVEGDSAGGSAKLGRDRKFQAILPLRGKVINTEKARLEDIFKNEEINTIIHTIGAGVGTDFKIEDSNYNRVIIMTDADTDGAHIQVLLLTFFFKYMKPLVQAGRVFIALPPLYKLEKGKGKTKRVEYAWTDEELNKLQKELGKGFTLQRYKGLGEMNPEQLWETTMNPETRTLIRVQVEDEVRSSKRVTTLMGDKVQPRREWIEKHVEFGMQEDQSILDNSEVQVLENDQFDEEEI
T2 sequence (Q2FYS4 whole entry): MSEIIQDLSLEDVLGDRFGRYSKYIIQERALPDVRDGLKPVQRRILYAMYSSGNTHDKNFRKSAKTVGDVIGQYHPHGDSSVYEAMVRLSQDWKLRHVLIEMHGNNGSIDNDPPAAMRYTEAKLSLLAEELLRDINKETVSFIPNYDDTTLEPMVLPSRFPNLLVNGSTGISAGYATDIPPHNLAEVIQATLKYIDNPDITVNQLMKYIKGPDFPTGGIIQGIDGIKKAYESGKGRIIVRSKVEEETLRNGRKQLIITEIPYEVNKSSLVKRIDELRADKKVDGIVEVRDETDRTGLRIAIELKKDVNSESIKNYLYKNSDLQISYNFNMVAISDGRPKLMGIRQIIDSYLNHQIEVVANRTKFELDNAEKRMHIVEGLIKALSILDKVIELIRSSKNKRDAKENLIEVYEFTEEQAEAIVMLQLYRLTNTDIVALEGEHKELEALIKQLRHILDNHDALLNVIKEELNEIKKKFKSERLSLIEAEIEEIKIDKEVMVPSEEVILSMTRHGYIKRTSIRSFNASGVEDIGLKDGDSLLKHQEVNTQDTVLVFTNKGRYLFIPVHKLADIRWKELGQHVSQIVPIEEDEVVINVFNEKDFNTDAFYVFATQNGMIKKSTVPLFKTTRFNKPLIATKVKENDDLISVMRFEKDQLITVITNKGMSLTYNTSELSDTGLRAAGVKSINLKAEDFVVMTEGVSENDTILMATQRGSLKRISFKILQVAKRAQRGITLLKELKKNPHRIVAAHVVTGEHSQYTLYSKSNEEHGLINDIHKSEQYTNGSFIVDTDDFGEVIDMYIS
T1 sequence (Q12809 whole entry): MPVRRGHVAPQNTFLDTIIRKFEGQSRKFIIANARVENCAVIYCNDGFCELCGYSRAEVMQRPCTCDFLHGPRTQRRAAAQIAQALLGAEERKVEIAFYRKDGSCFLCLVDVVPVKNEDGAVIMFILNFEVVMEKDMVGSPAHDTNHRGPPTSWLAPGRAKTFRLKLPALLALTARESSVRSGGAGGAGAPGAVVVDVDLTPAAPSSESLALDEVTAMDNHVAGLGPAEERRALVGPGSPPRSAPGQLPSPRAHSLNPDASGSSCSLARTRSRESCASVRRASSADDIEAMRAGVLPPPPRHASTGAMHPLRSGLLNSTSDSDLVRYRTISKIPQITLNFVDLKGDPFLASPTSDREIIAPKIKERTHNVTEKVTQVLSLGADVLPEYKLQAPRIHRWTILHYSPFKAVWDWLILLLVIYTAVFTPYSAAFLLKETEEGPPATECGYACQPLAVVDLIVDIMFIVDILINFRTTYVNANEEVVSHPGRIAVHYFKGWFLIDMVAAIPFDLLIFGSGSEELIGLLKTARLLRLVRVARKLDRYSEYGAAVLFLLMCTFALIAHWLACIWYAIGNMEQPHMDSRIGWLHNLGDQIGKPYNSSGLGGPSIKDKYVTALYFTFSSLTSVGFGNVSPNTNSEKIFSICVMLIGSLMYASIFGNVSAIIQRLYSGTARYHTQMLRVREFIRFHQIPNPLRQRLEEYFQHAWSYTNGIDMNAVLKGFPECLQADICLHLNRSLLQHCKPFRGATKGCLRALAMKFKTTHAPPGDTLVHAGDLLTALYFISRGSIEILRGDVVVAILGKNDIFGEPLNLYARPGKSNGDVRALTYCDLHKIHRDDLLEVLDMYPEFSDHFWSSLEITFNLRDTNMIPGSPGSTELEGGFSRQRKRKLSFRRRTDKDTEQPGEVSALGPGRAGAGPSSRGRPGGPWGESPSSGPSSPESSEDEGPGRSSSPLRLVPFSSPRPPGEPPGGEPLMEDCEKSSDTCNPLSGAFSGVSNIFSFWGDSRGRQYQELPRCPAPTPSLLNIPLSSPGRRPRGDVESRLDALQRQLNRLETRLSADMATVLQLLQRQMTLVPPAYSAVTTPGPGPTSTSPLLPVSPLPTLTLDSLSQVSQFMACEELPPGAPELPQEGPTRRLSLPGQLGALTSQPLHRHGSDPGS

Q: Which MIC [1, 7] does the source give for `COc1ccc2nccc(CCN3CCC(NCc4nc5ccccc5n4C)CC3)c2n1` [Compound 3, 1-(2-(6-Methoxy-1,5-naphthyridin-4-yl)ethyl)-N-((1-methyl-1H-benzo[d]imidazol-2-yl)methyl)piperidin-4-amine] here?
A: > 128 µg/mL

Q: What about the solubility thermodynamic at 24 h [2] of the same compound?
A: 349 µg/mL (≈ 811 µM)

Q: And the IC50 [3]?
A: 1.04 µM

Q: And the MIC [4, 8]?
A: > 128 µg/mL

Q: What about the IC50 [5] of the same compound?
A: > 100 µM

Q: Which MIC [1, 7] does the source give for `COc1ccc2nccc(CCN3CCC(NCc4cnn(-c5ccc(F)cc5)c4)CC3)c2n1` [Compound 4, N-((1-(4-Fluorophenyl)-1H-pyrazol-4-yl)methyl)-1-(2-(6-methoxy-1,5-naphthyridin-4-yl)ethyl)piperidin-4-amine] here?
A: 32 µg/mL (≈ 69.5 µM)

Q: And the solubility thermodynamic at 24 h [2]?
A: 585 µg/mL (≈ 1270 µM)

Q: And the IC50 [3]?
A: 0.33 µM

Q: And the MIC [4, 8]?
A: 128 µg/mL (≈ 278 µM)

Q: And the IC50 [6]?
A: 4.64 ± 0.1 µM

Q: What about the IC50 [5] of the same compound?
A: > 100 µM

Q: Which MIC [1, 7] does the source give for `COc1ccc2nccc(CCN3CCC(NCc4cnn(-c5ccccc5)c4)CC3)c2n1` [Compound 5, 1-(2-(6-Methoxy-1,5-naphthyridin-4-yl)ethyl)-N-((1-phenyl-1H-pyrazol-4-yl)methyl)piperidin-4-amine] here?
A: 4 µg/mL (≈ 9.04 µM)

Q: And the solubility thermodynamic at 24 h [2]?
A: 381 µg/mL (≈ 861 µM)

Q: What about the IC50 [3] of the same compound?
A: 0.62 µM

Q: What about the MIC [4, 8] of the same compound?
A: 64 µg/mL (≈ 145 µM)

Q: What about the IC50 [6] of the same compound?
A: 6.33 ± 0.19 µM

Q: What about the “LE Topo IV S. aureus” value [5] of the same compound?
A: 0.19

Q: And the IC50 [5]?
A: 29.6 ± 0.54 µM

Q: With `COc1ccc2nccc(CCN3CCC(NCc4c(C)nc5c(C)cccn45)CC3)c2n1` [Compound 6, N-((2,8-Dimethylimidazo[1,2-a]pyridin-3-yl)methyl)-1-(2-(6-methoxy-1,5-naphthyridin-4-yl)ethyl)piperidin-4-amine] as the compound, how does the MIC [1, 9] read?
A: > 128 µg/mL

Q: What about the solubility thermodynamic at 24 h [2] of the same compound?
A: 797 µg/mL (≈ 1790 µM)

Q: And the MIC [4, 10]?
A: > 128 µg/mL

Q: And the IC50 [5]?
A: > 100 µM

Q: For `COc1ccc2nccc(CCN3CCC(NC(=O)c4cn5cccc(C#N)c5n4)CC3)c2n1` [Compound 7, 8-Cyano-N-(1-(2-(6-methoxy-1,5-naphthyridin-4-yl)ethyl)piperidin-4-yl)imidazo[1,2-a]pyridine-2-carboxamide], which MIC [1, 9] is on record?
A: > 128 µg/mL

Q: And the solubility thermodynamic at 24 h [2]?
A: 883 µg/mL (≈ 1940 µM)

Q: What about the MIC [4, 10] of the same compound?
A: > 128 µg/mL

Q: What about the IC50 [5] of the same compound?
A: > 100 µM

Q: Which results are given for `COc1ccc2nccc(CCN3CCC(NCc4cnn(-c5ccccc5)n4)CC3)c2n1` [Compound 8, 1-(2-(6-Methoxy-1,5-naphthyridin-4-yl)ethyl)-N-((2-phenyl-2H-1,2,3-triazol-4-yl)methyl)piperidin-4-amine]?
A: MIC [1, 7]: 32 µg/mL (≈ 72.1 µM); solubility thermodynamic at 24 h [2]: 106 µg/mL (≈ 239 µM); IC50 [3]: 0.37 µM; MIC [4, 8]: 32 µg/mL (≈ 72.1 µM); IC50 [6]: 17.1 ± 0.98 µM; IC50 [5]: > 100 µM

Q: For `COc1ccc2nccc(CCN3CCC(NCc4cnn(C(C)C)c4)CC3)c2n1` [Compound 9, N-((1-Isopropyl-1H-pyrazol-4-yl)methyl)-1-(2-(6-methoxy-1,5-naphthyridin-4-yl)ethyl)piperidin-4-amine], which MIC [1, 7] is on record?
A: 2 µg/mL (≈ 4.9 µM)

Q: What about the “solubility at pH 6.8 in words” value [2] of the same compound?
A: soluble at this pH in any conceivable single-dose

Q: And the solubility thermodynamic at 24 h [2]?
A: 7550 µg/mL (≈ 18500 µM)

Q: And the IC50 [3]?
A: 9.82 µM

Q: What about the MIC [4, 8] of the same compound?
A: 128 µg/mL (≈ 313 µM)

Q: What about the IC50 [6] of the same compound?
A: > 50 µM

Q: And the “LE Topo IV S. aureus” value [5]?
A: 0.20

Q: And the IC50 [5]?
A: 40.38 ± 0.09 µM

Q: With `C=CCn1cc(CNC2CCN(CCc3ccnc4ccc(OC)nc34)CC2)cn1` [Compound 10, N-((1-Allyl-1H-pyrazol-4-yl)methyl)-1-(2-(6-methoxy-1,5-naphthyridin-4-yl)ethyl)piperidin-4-amine] as the compound, how does the MIC [1, 7] read?
A: 32 µg/mL (≈ 78.7 µM)

Q: And the “solubility at pH 6.8 in words” value [2]?
A: soluble at this pH in any conceivable single-dose

Q: And the solubility thermodynamic at 24 h [2]?
A: 5700 µg/mL (≈ 14000 µM)

Q: And the IC50 [3]?
A: 6.62 µM

Q: What about the MIC [4, 8] of the same compound?
A: > 128 µg/mL

Q: And the IC50 [6]?
A: > 50 µM

Q: And the IC50 [5]?
A: > 100 µM

Q: With `COc1ccc2nccc(CCN3CCC(NCc4ccccc4)CC3)c2n1` [Compound 11] as the compound, how does the MIC [1, 7] read?
A: 64 µg/mL (≈ 170 µM)

Q: And the solubility thermodynamic at 24 h [2]?
A: 1370 µg/mL (≈ 3640 µM)

Q: What about the MIC [4, 8] of the same compound?
A: > 128 µg/mL

Q: What about the IC50 [5] of the same compound?
A: > 100 µM
